Data: BindingDB's records for doi:10.1021/jm0010365 (Universita' Degli Studi Di Salerno, 2001)

Assay: Inhibition of HIV-1 Mutant HIV-1 RT enzymes containing the single amino acid substitution V179D

Compound | Ki
S=C(NCCOc1nc2cc(Cl)ccc2n2cccc12)Nc1ccc(Br)cn1 [1-(5-Bromo-pyridin-2-yl)-3-[2-(7-chloro-pyrrolo[1,2-a]quinoxalin-4-yloxy)-ethyl]-thiourea] | 70 nM
Cc1cc2nc(OCCNC(=S)Nc3ccc(Br)cn3)c3cccn3c2cc1C [1-(5-Bromo-pyridin-2-yl)-3-[2-(7,8-dimethyl-pyrrolo[1,2-a]quinoxalin-4-yloxy)-ethyl]-thiourea] | 800 nM
